One data set has as its target T1, human GLP-1R receptor (Homo sapiens, UniProt P43220).
T1 construct: expressed in transfected cells
The experiment in a line: GLP-1R low expression cell assay (cAMP TR-FRET, CHO-K1_hGLP-1Rlow_clone10 cells). It counts as cell-based. To be noted: for EC50: cAMP TR-FRET, 30 min at 25° C.; for Emax: maximum activation relative to control GLP-1 peptide agonist. A digest of the protocol:
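Readout is cAMP TR-FRET after 30 min compound stimulation at 25 °C of a low-GLP-1R-expressing CHO-K1 clone (1,000 cells/well), with 10-point 3-fold serial dilutions. Percent activation versus a control GLP-1 peptide, from duplicates, was Hill-fitted to give EC50.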

A short description of data set [1]: Rat pharmacokinetics, oral dosing. It counts as in vivo, Sprague-Dawley rats. To be noted: male, Sprague-Dawley, oral dosing at 3 mg/kg, plasma; for half-life: read-out: Rat T1/2. On the procedure: Intravenous dosing: Compounds were formulated at 1.0 mg/mL in a solution comprising 5% polyethylene glycol 400 and 95% (12% (w/v) sulfobutyl-β-cyclodextrin in water) (v/v). Formulated compounds were sterile filtered through a 0.22 micron filter before dosing. Compounds were administered to male, 7-11-week-old Sprague-Dawley rats by jugular vein cannula infusion over 30 minutes at a dose of 1 mg/kg. Oral dosing: Compounds were formulated at 1.0 mg/mL in a solution comprising 5% polyethylene glycol 400 and 95% (12% (w/v) sulfobutyl-β-cyclodextrin in water) (v/v). Formulated compounds were administered to male, 7-11 week old Sprague-Dawley rats by oral gavage at a dose of 10 mg/kg or 3 mg/kg.
Sample collection: Blood collections of about 0.2 mL per time point were performed from jugular vein or other suitable site of each animal, into pre-chilled commercial EDTA-K2 tubes and placed on wet ice until centrifugation. Blood samples were processed for plasma by centrifugation at approximately 4° C., 3,200 g for 10 min. Plasma was collected and transferred into pre-labeled 96 well plate or polypropylene tubes, quick frozen over dry ice and kept at −60° C. or lower until
Data analysis: Plasma concentration versus time data was plotted in graph and analyzed by non-compartmental approaches using the Phoenix WinNonlin 6.3 software program. Related PK parameters were calculated according to dosing route, e.g., CL, Vdss and C0 for intravenous administration, Cmax, Tmax or % F for extravascular administration, and T1/2, AUC(0-t), AUC(0-inf), MRT(0-t), MRT(0-inf) for all routes.

T1 sequence (P43220 24-463): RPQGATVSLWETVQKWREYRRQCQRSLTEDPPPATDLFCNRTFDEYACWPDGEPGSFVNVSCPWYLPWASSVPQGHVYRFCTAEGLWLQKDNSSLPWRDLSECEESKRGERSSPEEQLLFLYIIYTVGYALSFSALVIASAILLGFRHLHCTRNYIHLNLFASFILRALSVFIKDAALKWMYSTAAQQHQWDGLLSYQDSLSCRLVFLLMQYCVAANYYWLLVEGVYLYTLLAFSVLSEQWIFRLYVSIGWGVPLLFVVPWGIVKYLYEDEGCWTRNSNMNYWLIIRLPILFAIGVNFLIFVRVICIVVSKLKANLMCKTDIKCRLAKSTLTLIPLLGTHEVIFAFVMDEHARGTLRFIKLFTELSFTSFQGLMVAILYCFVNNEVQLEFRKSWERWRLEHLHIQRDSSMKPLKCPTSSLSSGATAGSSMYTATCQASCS

Take `[2H]C([2H])(C)Oc1cc(C(=O)O)cc2c1nc(CN1CCC(c3cccc(OCc4ccc(Cl)cc4F)n3)CC1)n2C` [Compound 296, 2-((4-(6-((4-Chloro-2-fluorobenzyl)oxy)pyridin-2-yl)piperidin-1-yl)methyl)-4-(ethoxy-1,1-d2)-1-methyl-1H-benzo[d]imidazole-6-carboxylic acid]: on human GLP-1R receptor, the EC50 is less than 10 nM and the maximum response (Emax) is greater than 85%. In addition, in data set [1], the AUC fell in the range of 2500 to 10000 ng·h/mL, the Cmax was 2000 to 5000 ng/mL, the half-life lay within 1.5 to 2.5 h and the bioavailability was in the range of 25 to 50%.

On human GLP-1R receptor, `COc1cc(C(=O)O)cc2c1nc(CN1CCC(c3cccc(OCc4ccc(Cl)c5c4OCC5)n3)CC1)n2C` [Compound 297, 2-((4-(6-((4-Chloro-2,3-dihydrobenzofuran-7-yl)methoxy)pyridin-2-yl)piperidin-1-yl)methyl)-4-methoxy-1-methyl-1H-benzo[d]imidazole-6-carboxylic acid] registered an EC50 of less than 10 nM and an Emax greater than 85%. Moreover, in data set [1], the Cmax was in the range of 2000 to 5000 ng/mL, the half-life was in the range of 1.5 to 2.5 h and the bioavailability was 25 to 50%.

At human GLP-1R receptor, `Cn1c(CN2CCC(c3cccc4c3O[C@@H](c3ccc(Cl)cc3F)CO4)CC2)nc2c(OCCF)cc(C(=O)O)cc21` [Compound 299, (S)-2-((4-(3-(4-chloro-2-fluorophenyl)-2,3-dihydrobenzo[b][1,4]dioxin-5-yl)piperidin-1-yl)methyl)-4-(2-fluoroethoxy)-1-methyl-1H-benzo[d]imidazole-6-carboxylic acid] had a concentration giving a half-maximal response (EC50) of less than 10 nM and an Emax greater than 85%. Besides, in data set [1], the AUC was in the range of 500 to 2500 ng·h/mL, the Cmax was less than 500 ng/mL, the half-life was in the range of 1.5 to 2.5 h and the bioavailability was 50 to 85%.

On human GLP-1R receptor, `C[C@]1(c2ccc(Cl)cn2)Oc2cccc(C3CCN(Cc4nc5c(OC6COC6)cc(C(=O)O)cc5n4C[C@@H]4CCO4)CC3)c2O1` [Compound 72, 2-((4-((S)-2-(5-Chloropyridin-2-yl)-2-methylbenzo[d][1,3]dioxol-4-yl)piperidin-1-yl)methyl)-1-(((S)-oxetan-2-yl)methyl)-4-(oxetan-3-yloxy)-1H-benzo[d]imidazole-6-carboxylic acid] showed a 50% effective concentration (EC50) of less than 10 nM and an Emax greater than 85%. Further, in data set [1], the exposure (AUC) was less than 500 ng·h/mL, the Cmax is less than 500 ng/mL, the half-life is less than 1.5 h and the bioavailability is less than 25%.

For `COc1cc(C(F)(F)F)ccc1COc1cccc(C2CCN(Cc3nc4c(OC)cc(C(=O)O)cc4n3C)CC2)n1` [Compound 306, 4-Methoxy-2-((4-(6-((2-methoxy-4-(trifluoromethyl)benzyl)oxy)pyridin-2-yl)piperidin-1-yl)methyl)-1-methyl-1H-benzo[d]imidazole-6-carboxylic acid], on human GLP-1R receptor, the EC50 is less than 10 nM and the Emax was greater than 85%. Further, in data set [1], the AUC was 2500 to 10000 ng·h/mL, the Cmax lay in the range of 2000 to 5000 ng/mL, the half-life was in the range of 1.5 to 2.5 h and the bioavailability lay within 50 to 85%.

Take `COc1cc(C(=O)O)cc2c1nc(CN1CCC(c3cccc4c3O[C@@](C)(c3ccc(Cl)cn3)O4)CC1)n2C` [Compound 85, (S)-2-((4-(2-(5-Chloropyridin-2-yl)-2-methylbenzo[d][1,3]dioxol-4-yl)piperidin-1-yl)methyl)-4-methoxy-1-methyl-1H-benzo[d]imidazole-6-carboxylic acid]: on human GLP-1R receptor, the 50% effective concentration (EC50) is less than 10 nM and the Emax was greater than 85%. In data set [1], the AUC lay within 2500 to 10000 ng·h/mL, the Cmax lay in the range of 1000 to 2000 ng/mL, the half-life was 1.5 to 2.5 h and the bioavailability is 25 to 50%.

Regarding `Cn1c(CN2CCC(c3cccc4c3O[C@@H](c3ccc(C#N)cc3F)CO4)CC2)nc2c(OCCF)cc(C(=O)O)cc21` [Compound 294, (S)-2-((4-(3-(4-Cyano-2-fluorophenyl)-2,3-dihydrobenzo[b][1,4]dioxin-5-yl)piperidin-1-yl)methyl)-4-(2-fluoroethoxy)-1-methyl-1H-benzo[d]imidazole-6-carboxylic acid], on human GLP-1R receptor, the EC50 is greater than 1000 nM and the Emax was in the range of 50 to 85%. Also, in data set [1], the AUC is less than 500 ng·h/mL, the Cmax is less than 500 ng/mL, the half-life is no less than 2.5 h and the bioavailability is less than 25%.

At human GLP-1R receptor, `COc1cc(C#N)ccc1COc1cccc(C2CCN(Cc3nc4c(OC(F)F)cc(C(=O)O)cc4n3C)CC2)n1` [Compound 156, 2-((4-(6-((4-Cyano-2-methoxybenzyl)oxy)pyridin-2-yl)piperidin-1-yl)methyl)-4-(difluoromethoxy)-1-methyl-1H-benzo[d]imidazole-6-carboxylic acid] gave a concentration giving a half-maximal response (EC50) of less than 10 nM and an Emax greater than 85%. In data set [1], the AUC lay in the range of 2500 to 10000 ng·h/mL, the Cmax was 2000 to 5000 ng/mL, the half-life was less than 1.5 h and the bioavailability fell in the range of 50 to 85%.

Turning to `Cn1c(CN2CCC(c3cccc(OCc4ccc(C#N)cc4F)n3)CC2)nc2c(OC(F)F)cc(C(=O)O)cc21` [Compound 127, 2-((4-(6-((4-Cyano-2-fluorobenzyl)oxy)pyridin-2-yl)piperidin-1-yl)methyl)-4-(difluoromethoxy)-1-methyl-1H-benzo[d]imidazole-6-carboxylic acid], on human GLP-1R receptor, the EC50 is less than 10 nM and the Emax is greater than 85%. Moreover, in data set [1], the AUC lay within 2500 to 10000 ng·h/mL, the Cmax lay in the range of 2000 to 5000 ng/mL, the half-life was less than 1.5 h and the bioavailability was in the range of 50 to 85%.

Regarding `COc1cc(Cl)ccc1COc1cccc(C2CCN(Cc3nc4c(OC(F)F)cc(C(=O)O)cc4n3C)CC2)n1` [Compound 226, 2-((4-(6-((4-Chloro-2-methoxybenzyl)oxy)pyridin-2-yl)piperidin-1-yl)methyl)-4-(difluoromethoxy)-1-methyl-1H-benzo[d]imidazole-6-carboxylic acid], at human GLP-1R receptor, the EC50 is less than 10 nM and the Emax was greater than 85%. Besides, in data set [1], the Cmax is greater than 5000 ng/mL, the half-life was no less than 2.5 h and the bioavailability was greater than 85%.

For `Cn1c(CN2CCC(c3cccc4c3OC[C@@H](c3ccc(C#N)cc3F)O4)CC2)nc2c(OC(F)F)cc(C(=O)O)cc21` [Compound 300, (R)-2-((4-(2-(4-Cyano-2-fluorophenyl)-2,3-dihydrobenzo[b][1,4]dioxin-5-yl)piperidin-1-yl)methyl)-4-(difluoromethoxy)-1-methyl-1H-benzo[d]imidazole-6-carboxylic acid], at human GLP-1R receptor, the EC50 fell in the range of 100 to 1000 nM and the Emax was greater than 85%. Also, in data set [1], the Cmax was in the range of 2000 to 5000 ng/mL, the half-life is no less than 2.5 h and the bioavailability was greater than 85%.

On human GLP-1R receptor, `COc1cc(C(=O)O)c(F)c2c1nc(CN1CCC(c3cccc(OCc4ccc(C#N)cc4F)n3)CC1)n2C` [Compound 303, 2-((4-(6-((4-Cyano-2-fluorobenzyl)oxy)pyridin-2-yl)piperidin-1-yl)methyl)-7-fluoro-4-methoxy-1-methyl-1H-benzo[d]imidazole-6-carboxylic acid] showed an EC50 of 10 to 100 nM and an Emax greater than 85%. In data set [1], the AUC lay in the range of 500 to 2500 ng·h/mL, the Cmax lay in the range of 500 to 1000 ng/mL, the half-life is no less than 2.5 h and the bioavailability was less than 25%.

As for `COc1cc(C(=O)O)c(F)c2c1nc(CN1CCC(c3cccc(OCc4ccc(Cl)cc4F)n3)CC1)n2C` [Compound 302, 2-((4-(6-((4-Chloro-2-fluorobenzyl)oxy)pyridin-2-yl)piperidin-1-yl)methyl)-7-fluoro-4-methoxy-1-methyl-1H-benzo[d]imidazole-6-carboxylic acid], on human GLP-1R receptor, the EC50 is less than 10 nM and the Emax is greater than 85%. Also, in data set [1], the exposure (AUC) fell in the range of 2500 to 10000 ng·h/mL, the Cmax was in the range of 2000 to 5000 ng/mL, the half-life is no less than 2.5 h and the bioavailability lay in the range of 50 to 85%.

Take `COc1c(F)c(C(=O)O)cc2c1nc(CN1CCC(c3cccc(OCc4ccc(C#N)cc4F)n3)CC1)n2C` [Compound 301, 2-((4-(6-((4-Cyano-2-fluorobenzyl)oxy)pyridin-2-yl)piperidin-1-yl)methyl)-5-fluoro-4-methoxy-1-methyl-1H-benzo[d]imidazole-6-carboxylic acid]: at human GLP-1R receptor, the EC50 was in the range of 10 to 100 nM and the Emax is greater than 85%. Besides, in data set [1], the area under the curve (AUC) was in the range of 500 to 2500 ng·h/mL, the Cmax fell in the range of 500 to 1000 ng/mL, the half-life is 1.5 to 2.5 h and the bioavailability was in the range of 50 to 85%.

Regarding `COc1cc(C(=O)O)cc2c1nc(CN1CCC(c3cccc(OCc4ccc(C#N)cc4F)n3)CC1)n2C` [Compound 308, 2-((4-(6-((4-Cyano-2-fluorobenzyl)oxy)pyridin-2-yl)piperidin-1-yl)methyl)-4-methoxy-1-methyl-1H-benzo[d]imidazole-6-carboxylic acid], at human GLP-1R receptor, the EC50 is less than 10 nM and the Emax was greater than 85%. In data set [1], the AUC was in the range of 2500 to 10000 ng·h/mL, the Cmax fell in the range of 1000 to 2000 ng/mL, the half-life was in the range of 1.5 to 2.5 h and the bioavailability lay in the range of 50 to 85%.

In general, EC50 refers to the midpoint of the concentration-response curve. Usually Emax stands for the size of the effect at its maximum, as opposed to the concentration needed. Broadly, the AUC is concentration integrated over time. In general, Cmax refers to the peak of the concentration-time curve. The bioavailability is dose-corrected exposure relative to a reference, in per cent.

(Values after patent US20240368120A1 (Terns Pharmaceuticals, Inc., priority 2023, published 2024).)
